Source: PubChem BioAssay (NCI)
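1) Cells in 96-well plates. 2) Compound, 48 h, 5 concentrations. 3) Linear interpolation between surrounding doses. 4) Unreached endpoint = highest concentration. GI50 = concentration required for 50% inhibition of growth. At the TGI there is no net growth.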

Experiments:
Experiment in all cases: NCI anticancer screen, dose series, 48 h
SK-OV-3 ovarian = system: SK-OV-3 ovarian
OVCAR-3 ovarian = system: OVCAR-3 ovarian
KM12 colon = system: KM12 colon
UO-31 renal = system: UO-31 renal
NCI-H226 lung = system: NCI-H226 lung
HCC-2998 colon = system: HCC-2998 colon
HOP-62 NSCLC = system: HOP-62 NSCLC
U251 CNS = system: U251 CNS
BT-549 breast = system: BT-549 breast
DU-145 prostate = system: DU-145 prostate

Structure (SMILES)	TGI (SK-OV-3 ovarian)	TGI (OVCAR-3 ovarian)	TGI (KM12 colon)	TGI (UO-31 renal)	TGI (NCI-H226 lung)	TGI (HCC-2998 colon)	TGI (HOP-62 NSCLC)	TGI (U251 CNS)	TGI (BT-549 breast)	TGI (DU-145 prostate)	GI50 (SK-OV-3 ovarian)	GI50 (OVCAR-3 ovarian)	GI50 (KM12 colon)	GI50 (BT-549 breast)	GI50 (UO-31 renal)	GI50 (DU-145 prostate)	GI50 (NCI-H226 lung)	GI50 (HOP-62 NSCLC)	GI50 (U251 CNS)
CCc1ccccc1NC(=O)CCc1nc(=S)[nH][nH]1	> 100 µM	> 100 µM	> 100 µM	> 100 µM	> 100 µM	> 100 µM	> 100 µM	> 100 µM	–	–	–	–	–	–	–	–	–	–	–
CC1(C)CCSC(/C=C/c2ccccc2)=N1	> 100 µM	28.5 µM	26.1 µM	–	–	–	32.8 µM	34.3 µM	22 µM	> 100 µM	–	–	–	–	–	–	–	–	–
COc1cc2c(/C=C3/C(=O)Nc4ccccc43)c(Cl)n(Cc3ccccc3)c2cc1C	> 100 µM	> 100 µM	> 100 µM	> 100 µM	> 100 µM	–	> 100 µM	> 100 µM	> 100 µM	> 100 µM	> 100 µM	> 100 µM	> 100 µM	> 100 µM	83.4 µM	> 100 µM	> 100 µM	> 100 µM	> 100 µM
COc1ccccc1NC(=O)CC(=O)n1nc(C)c(N=Nc2ccccc2F)c1C	83.6 µM	> 100 µM	> 100 µM	> 100 µM	> 100 µM	> 100 µM	> 83.9 µM	> 100 µM	–	–	–	–	–	–	–	–	–	–	–
O=C(CC(=O)Nc1ccc(Cl)cc1)NNCC(=O)Nc1nc(-c2ccccc2)cs1	> 100 µM	> 100 µM	> 100 µM	–	> 100 µM	> 100 µM	> 100 µM	> 100 µM	–	–	–	–	–	–	–	–	–	–	–
CCNC(=O)C(O)C1(O)CCC2[C@@H]3CCC4=CC(=O)C=C[C@]4(C)C3[C@@H](O)C[C@@]21C (some centres undefined)	> 100 µM	> 100 µM	> 100 µM	> 100 µM	> 100 µM	> 100 µM	> 100 µM	> 100 µM	–	–	–	–	–	–	–	–	–	–	–
Cc1ccccc1C(C#N)/C(=N/NC(=O)c1cc2ccccc2cc1O)C(=O)Nc1cccc(Cl)c1 (centres undefined)	> 100 µM	92.7 µM	> 100 µM	8.4 µM	78.4 µM	78.5 µM	> 100 µM	> 100 µM	–	–	–	–	–	–	–	–	–	–	–
COC(=O)c1nc(-c2ccc(Cl)c(Cl)c2)nc2ccccc12	31.2 µM	> 100 µM	> 100 µM	> 100 µM	78.1 µM	> 100 µM	62.8 µM	> 100 µM	–	–	–	–	–	–	–	–	–	–	–
COc1ccc2[nH]c3c(cnn4cnnc34)c2c1	> 100 µM	> 100 µM	> 100 µM	> 100 µM	–	> 100 µM	> 100 µM	> 100 µM	–	–	–	–	–	–	–	–	–	–	–
C/C(=N\NC(=S)N(C)C)c1ncc[nH]1	21.8 µM	> 100 µM	> 100 µM	7.31 µM	–	38.6 µM	–	5.22 µM	–	–	–	–	–	–	–	–	–	–	–
COc1ncnc2c(NC3OC(CO)C(O)C3O)ncnc12 (centres undefined)	> 27.1 µM	11.1 µM	> 65.1 µM	> 21.9 µM	3.82 µM	> 35 µM	18 µM	> 100 µM	–	10 µM	–	–	–	–	–	–	–	–	–
CC(=O)/C=C1/c2ccccc2N(C(C)=O)C1O (centres undefined)	> 100 µM	> 100 µM	> 100 µM	> 100 µM	–	> 100 µM	> 100 µM	> 100 µM	–	–	–	–	–	–	–	–	–	–	–
CCCOc1ccc(/C=C\c2cc(OC)c(OC)c(OC)c2)cc1	–	> 100 µM	89.5 µM	> 100 µM	> 100 µM	–	> 100 µM	> 100 µM	–	–	–	–	–	–	–	–	–	–	–
Cc1cc2c(cn1)C(=O)OCC2	> 100 µM	> 100 µM	> 100 µM	> 100 µM	> 100 µM	> 100 µM	> 100 µM	> 100 µM	–	–	–	–	–	–	–	–	–	–	–
CCCOc1ccc(/C=C/c2cc(OC)c(OC)c(OC)c2)cc1	–	–	> 25.4 µM	> 100 µM	2.54 µM	> 100 µM	> 100 µM	> 29.6 µM	–	–	–	–	–	–	–	–	–	0.32 µM	–
CCOC(=O)/C(C#N)=C(O)/C(=C/c1ccccc1Cl)NC(=O)c1ccccc1	> 100 µM	> 100 µM	> 100 µM	> 100 µM	> 100 µM	> 100 µM	> 100 µM	> 100 µM	–	–	–	–	–	–	–	–	–	–	–
CN1C(c2ccccc2)CC(=Nc2ccccc2)CC1c1ccccc1 (centres undefined)	8.12 µM	24 µM	–	47.8 µM	25.6 µM	–	34.6 µM	19.6 µM	–	–	–	–	–	–	–	–	–	–	–
Nc1cc(N)c2nc(-c3ccccc3)c(Nc3ccc(F)cc3)nc2c1	> 100 µM	17.8 µM	29.5 µM	61.4 µM	47.5 µM	–	> 100 µM	20 µM	27.2 µM	28.3 µM	40.7 µM	4.66 µM	12 µM	11.9 µM	16.9 µM	12 µM	17.9 µM	37.8 µM	5.65 µM
